Data: article PMC11748363, “Antimicrobial and Antiproliferative Properties of 2‐Phenyl‐N‐(Pyridin‐2‐yl)acetamides” (Chemical Biology & Drug Design, 2025)
Converted amounts (≈) assume the structure as drawn. Read-outs that look alike come from different tables or passages of the source.

How the values were obtained:
[1] = system: Mycobacterium tuberculosis H37Ra; experiment: Antimycobacterial microdilution broth MIC (resazurin), Mtb H37Ra; format: cell-based; settings: for MIC: Mycobacterium tuberculosis, H37RA, read-out: MIC Mtb H37Ra; for SI (selectivity index): SI = HepG2 IC50 (μM)/MIC MtbH37Ra (μM), calculated for compounds with MIC ≤ 31.25 μg/mL
[2] = system: Mycolicibacterium smegmatis DSM 43465; experiment: Antimycobacterial microdilution broth MIC (resazurin), M. smegmatis; format: cell-based; settings: DSM43465, read-out: MIC M. smegmatis
[3] = system: Mycolicibacterium aurum DSM 43999; experiment: Antimycobacterial microdilution broth MIC (resazurin), M. aurum; format: cell-based; settings: DSM43999, read-out: MIC M. aurum
[4] = system: Mycobacterium tuberculosis H37Rv; experiment: Microplate Alamar Blue Assay MIC, Mtb H37Rv; format: cell-based; settings: Mycobacterium tuberculosis, H37RV
[5] = system: M. kansasii CNCTC My 235/80; experiment: Microplate Alamar Blue Assay MIC, M. kansasii; format: cell-based; settings: Mycobacterium kansasii
[6] = system: M. avium ssp. avium CNCTC My 80/72; experiment: Microplate Alamar Blue Assay MIC, M. avium; format: cell-based; settings: for MIC: Mycobacterium avium
HepG2 cell line = experiment: Cytotoxicity CellTiter 96, HepG2; format: cell-based, human; settings: Homo sapiens, HepG2, 24 h, 24 h incubation; ^c compound precipitated in the testing medium; ^d over the limit of tested concentrations
[7] = system: Staphylococcus aureus CCM 4223, ATCC 29213; experiment: Antibacterial microdilution broth MIC, SA; format: cell-based; settings: Staphylococcus aureus
[8] = system: Staphylococcus aureus subsp. aureus CCM 4750, ATCC 43300 (MRSA); experiment: Antibacterial microdilution broth MIC, MRSA; format: cell-based; settings: Staphylococcus aureus
[9] = system: Staphylococcus epidermidis CCM 4418, ATCC 12228; experiment: Antibacterial microdilution broth MIC, SE; format: cell-based
[10] = system: Enterococcus faecalis CCM 4224, ATCC 29212; experiment: Antibacterial microdilution broth MIC, EF; format: cell-based
[11] = system: Escherichia coli CCM 3954, ATCC 25922; experiment: Antibacterial microdilution broth MIC, EC; format: cell-based
[12] = system: Acinetobacter baumannii DSM 30007, ATCC 19606; experiment: Antibacterial microdilution broth MIC, ACI; format: cell-based
[13] = system: Pseudomonas aeruginosa CCM 3955, ATCC 27853; experiment: Antibacterial microdilution broth MIC, PA; format: cell-based
panel of bacteria = experiment: Antibacterial screening, whole panel; format: cell-based; settings: whole bacterial panel
panel of fungi = experiment: Antifungal screening, whole panel; format: cell-based; settings: whole fungal panel
Protocol: The antifungal activity was evaluated by
spectrophotometric visual detection** spectrophotometric detection**
Candida tropicalis 1 1 2 >16
Aspergillus fumigatus 4 4 0.25 1
Aspergillus flavus CCM 4 4 2 >16
interdigitale CCM 1 1 1 >16
control. […] Measured on a […]

[14] = system: Candida albicans CCM 8320, ATCC 24433; experiment: Antifungal microdilution broth MIC, CA
[15] = system: Candida krusei CCM 8271, ATCC 6258; experiment: Antifungal microdilution broth MIC, CK; settings: Pichia kudriavzevii
[16] = system: Candida parapsilosis CCM 8260, ATCC 22019; experiment: Antifungal microdilution broth MIC, CP; settings: Lodderomyces parapsilosis
[17] = system: Candida tropicalis CCM 8264, ATCC 750; experiment: Antifungal microdilution broth MIC, CT
[18] = system: Aspergillus fumigatus ATCC 204305; experiment: Antifungal microdilution broth MIC, AF
[19] = system: Lichtheimia corymbifera CCM 8077; experiment: Antifungal microdilution broth MIC, LC
[20] = system: Trichophyton interdigitale CCM 8377, ATCC 9533; experiment: Antifungal microdilution broth MIC, TI; settings: Trichophyton interdigitale
[21] = system: Aspergillus flavus CCM 8363; experiment: Antifungal microdilution broth MIC, AFla
[22] = system: Klebsiella pneumoniae CCM 4415, ATCC 10031; experiment: Antibacterial microdilution broth MIC, KP
[23] = ATCC204305, 24 h, read-out: MIC AF 24h
[24] = ATCC204305, 48 h, read-out: MIC AF 48h
[25] = CCM8077, 24 h, read-out: MIC LC 24h
[26] = CCM8077, 48 h, read-out: MIC LC 48h
[27] = CCM8363, 24 h, read-out: MIC AFla 24h
[28] = CCM8363, 48 h, read-out: MIC AFla 48h

## O=C(Cc1ccc(Cl)cc1)Nc1ccc(Cl)cn1 [Compound 20]
[1]; Calculated from MIC (μg/mL)
  MIC: 27.8 µM
[1]
  MIC: 7.81 mg/L
  SI (selectivity index): 1.7
[2]
  MIC: 500 mg/L (≈ 1780 µM)
[3]
  MIC: 500 mg/L (≈ 1780 µM)
[4]
  MIC: 6.25 mg/L (≈ 22.2 µM)
[5]
  MIC: > 100 mg/L
[6]
  MIC: > 100 mg/L
HepG2 cell line
  IC50: 48.5 µM
[7]; 24 h, read-out: MIC SA 24h
  MIC: > 500 µM
[7]; 48 h, read-out: MIC SA 48h
  MIC: > 500 µM
[8]; 24 h, read-out: MIC MRSA 24h
  MIC: > 500 µM
[8]; 48 h, read-out: MIC MRSA 48h
  MIC: > 500 µM
[9]; 24 h, read-out: MIC SE 24h
  MIC: > 500 µM
[9]; 48 h, read-out: MIC SE 48h
  MIC: > 500 µM
[10]; 24 h, read-out: MIC EF 24h
  MIC: > 500 µM
[10]; 48 h, read-out: MIC EF 48h
  MIC: > 500 µM
[11]; 24 h, read-out: MIC EC 24h
  MIC: > 500 µM
[11]; 48 h, read-out: MIC EC 48h
  MIC: > 500 µM
[12]; 24 h, read-out: MIC ACI 24h
  MIC: > 500 µM
[12]; 48 h, read-out: MIC ACI 48h
  MIC: > 500 µM
[13]; 24 h, read-out: MIC PA 24h
  MIC: > 500 µM
[13]; 48 h, read-out: MIC PA 48h
  MIC: > 500 µM
Panel of bacteria
  Antibacterial activity: None
Panel of fungi
  Antifungal activity: None
[14]; 24 h, read-out: MIC CA 24h
  MIC: > 500 µM
[14]; 48 h, read-out: MIC CA 48h
  MIC: > 500 µM
[15]; 24 h, read-out: MIC CK 24h
  MIC: > 500 µM
[15]; 48 h, read-out: MIC CK 48h
  MIC: > 500 µM
[16]; 24 h, read-out: MIC CP 24h
  MIC: > 500 µM
[16]; 48 h, read-out: MIC CP 48h
  MIC: > 500 µM
[17]; 24 h, read-out: MIC CT 24h
  MIC: > 500 µM
[17]; 48 h, read-out: MIC CT 48h
  MIC: > 500 µM
[18]; [23]
  MIC: > 500 µM
[18]; [24]
  MIC: > 500 µM
[19]; [25]
  MIC: > 500 µM
[19]; [26]
  MIC: > 500 µM
[20]; 72 h, read-out: MIC TI 72h
  MIC: > 500 µM
[20]; 120 h, read-out: MIC TI 120h
  MIC: > 500 µM
[21]; [27]
  MIC: > 500 µM
[21]; [28]
  MIC: > 500 µM
[22]
  MIC KP 24h: > 500 µM
  MIC KP 48h: > 500 µM

## O=C(Cc1ccc(C(F)(F)F)cc1)Nc1cccc(Cl)n1 [Compound 30]
[1]; Calculated from MIC (μg/mL)
  MIC: 24.8 µM
[1]
  MIC: 7.81 mg/L
  SI (selectivity index): 3.7
[2]
  MIC: > 500 mg/L
[3]
  MIC: > 500 mg/L
[4]
  MIC: 6.25 mg/L (≈ 19.9 µM)
[5]
  MIC: > 100 mg/L
[6]
  MIC M. avium: active
  MIC: 6.25 mg/L (≈ 19.9 µM)
HepG2 cell line
  IC50: 92.6 µM
[7]; 24 h, read-out: MIC SA 24h
  MIC: > 500 µM
[7]; 48 h, read-out: MIC SA 48h
  MIC: > 500 µM
[8]; 24 h, read-out: MIC MRSA 24h
  MIC: > 500 µM
[8]; 48 h, read-out: MIC MRSA 48h
  MIC: > 500 µM
[9]; 24 h, read-out: MIC SE 24h
  MIC: > 500 µM
[9]; 48 h, read-out: MIC SE 48h
  MIC: > 500 µM
[10]; 24 h, read-out: MIC EF 24h
  MIC: > 500 µM
[10]; 48 h, read-out: MIC EF 48h
  MIC: > 500 µM
[11]; 24 h, read-out: MIC EC 24h
  MIC: > 500 µM
[11]; 48 h, read-out: MIC EC 48h
  MIC: > 500 µM
[12]; 24 h, read-out: MIC ACI 24h
  MIC: > 500 µM
[12]; 48 h, read-out: MIC ACI 48h
  MIC: > 500 µM
[13]; 24 h, read-out: MIC PA 24h
  MIC: > 500 µM
[13]; 48 h, read-out: MIC PA 48h
  MIC: > 500 µM
Panel of bacteria
  Antibacterial activity: None
Panel of fungi
  Antifungal activity: None
[14]; 24 h, read-out: MIC CA 24h
  MIC: > 500 µM
[14]; 48 h, read-out: MIC CA 48h
  MIC: > 500 µM
[15]; 24 h, read-out: MIC CK 24h
  MIC: > 500 µM
[15]; 48 h, read-out: MIC CK 48h
  MIC: > 500 µM
[16]; 24 h, read-out: MIC CP 24h
  MIC: > 500 µM
[16]; 48 h, read-out: MIC CP 48h
  MIC: > 500 µM
[17]; 24 h, read-out: MIC CT 24h
  MIC: > 500 µM
[17]; 48 h, read-out: MIC CT 48h
  MIC: > 500 µM
[18]; [23]
  MIC: > 500 µM
[18]; [24]
  MIC: > 500 µM
[19]; [25]
  MIC: > 500 µM
[19]; [26]
  MIC: > 500 µM
[20]; 72 h, read-out: MIC TI 72h
  MIC: 500 µM (≈ 157 µg/mL)
[20]; 120 h, read-out: MIC TI 120h
  MIC: 500 µM (≈ 157 µg/mL)
[21]; [27]
  MIC: > 500 µM
[21]; [28]
  MIC: > 500 µM
[22]
  MIC KP 24h: > 500 µM
  MIC KP 48h: > 500 µM
